Data set [1] can be described thus: Evaluation of Caco-2 membrane permeability. The format is in vitro ADME. The following applies: human, Apical FaSSIF/HBSS pH 6.0 to Basal HBSS 4% BSA pH 7.4, 180 minutes, after 18 to 24 hours preincubation, read-out: Caco2 (Papp). On the procedure:
The permeability coefficient (Caco-2 Papp (cm/sec)) is calculated using a numerical expression 1.
[formula] • where dQ/dt is the permeation rate of the drug (amount of drug appearing on the Basal side per unit time), S is the total cell surface area, and C1 (0) is the concentration of drug added on the Apical side.
Caco-2 cells were cultured on 96-well Transwell for 3 weeks, then DMEM, FaSSIF (1% DMSO), and the compound were added to the Apical side, DMEM was added to the Basal side, and the cells were preincubated under 5% CO2 at 37° C. with shaking at 80 rpm for 18 to 24 hours. After the preincubation, the preincubation solutions on the Apical side and Basal side were sucked off and washed, a FaSSIF/HBSS buffer solution (1% DMSO) (pH 6.0) containing the compound was added to the Apical side, a HBSS buffer solution (4% BSA) (pH 7.4) was added to the Basal side, and measurement of membrane permeability was started. Each well was shaken under 5% CO2 at 37° C. and 80 rpm, and at 180 minutes after the start of shaking, a sample on the Basal side was collected, and the permeation amount was measured by LC/MS. From the permeation amount, the membrane permeability coefficient (Papp) was calculated. Note that the description “Caco-2 (cm/sec)” in the column in the table herein is used synonymously with “Papp (cm/sec)”.

A short description of data set [2]: Solubility in aqueous solution containing 0.3% or 1% Cremophor EL (Example 3-3). The format is physicochemical. The following applies: 25° C., 22 to 24 hours. As to the method: Evaluation of the solubility of the cyclic peptide compound in the presence of a surfactant was performed. To lyophilized powder of the compound, an aqueous solution containing 0.3% or 1% Cremophor EL (CreEL) was added, and after shaking (at 25° C., 1000 rpm, for 22 to 24 hours), the mixed solution was filtered through a filter, and the compound concentration of the filtrate was measured by LC/UV. Solubility (μg/mL) was calculated from the measured compound concentration.

Data set [3] is described as follows: Solubility of cyclic peptide compound in 50 mM phosphate buffer solution (pH 6.5), 37° C. (Example 3-3). It is filed as physicochemical. As to conditions: shaking 22 to 24 hours, read-out: solubility in 50 mM phosphate buffer solution (PPB). On the procedure: Evaluation of the solubility of the cyclic peptide compound was performed. To lyophilized powder of the compound, a 50 mM phosphate buffer solution (PPB: Phosphate buffer, pH 6.5) was added, and after shaking (at 37° C., 1800 rpm, for 22 to 24 hours), the mixed solution was filtered through a filter, and the compound concentration of the filtrate was measured by LC/MS/MS. Solubility was calculated from the measured compound concentration. The solubilities of the compounds 3, 4, 6, 7, and 8 were 11 μg/mL, 1 μg/mL, 1 μg/mL, 15 μg/mL, and 5 μg/mL, respectively.

Where [4] appears, read: 0.3% Cremophor EL aqueous solution, read-out: solubility, 0.3% Cremophor EL.
[5] abbreviates: 1% Cremophor EL aqueous solution, read-out: solubility, 1% Cremophor EL.

Values after ≈ are worked out from the molar mass of the structure shown. Bridge positions count the residues as written; N and C are the ends. Square brackets hold non-standard residues; d marks the D form. Peptide text beside a SMILES is read from it. * marks the point of attachment. hPhe(3,5-F2-4-CF3) = N[C@@H](CCc1cc(F)c(C(F)(F)F)c(F)c1)C(=O)O; hPhe(3-Cl-4-CF3) = N[C@@H](CCc1ccc(C(F)(F)F)c(Cl)c1)C(=O)O; NMePhe(4-Me) = CN[C@@H](Cc1ccc(C)cc1)C(=O)O; NMeGly(cPent) = CN[C@H](C(=O)O)C1CCCC1; NMeCha = CN[C@@H](CC1CCCCC1)C(=O)O; Hyp = O=C(O)[C@@H]1C[C@@H](O)CN1; NMeI = CC[C@H](C)[C@H](NC)C(=O)O; NMeD = CN[C@@H](CC(=O)O)C(=O)O; NMeL = CN[C@@H](CC(C)C)C(=O)O; NMeA = CN[C@@H](C)C(=O)O; Piperidide = C1CCN(*)CC1; Ac5c = NC1(C(=O)O)CCCC1; Aze = O=C(O)[C@@H]1CCN1; Sar = CNCC(=O)O

For orientation: solubility means how much of the substance goes into solution per volume. Consider `CC[C@H](C)[C@@H]1NC(=O)[C@H](CC(C)C)N(C)C(=O)C[C@@H](C(=O)N2CCCCC2)N(C)C(=O)[C@H](C2CCCC2)N(C)C(=O)C2(CCCC2)NC(=O)[C@@H]2CCCN2C(=O)[C@H](CCc2ccc(C(F)(F)F)c(Cl)c2)NC(=O)CN(C)C(=O)[C@H](CC2CCCCC2)N(C)C(=O)[C@@H]2CCN2C(=O)[C@H](C)N(C)C1=O` [Compound 6] ([NMeL]I[NMeA][Aze][NMeCha][Sar][hPhe(3-Cl-4-CF3)]P[Ac5c][NMeGly(cPent)][NMeD]-Piperidide; lactam N-11), for which the Papp A→B at 180 min in data set [1] is 6.1 nm/s. For the same compound, the solubility in data set [2] (setting [4]) was 0.434 mg/mL (≈ 298 µM); in data set [2] (setting [5]), 1.45 mg/mL (≈ 999 µM); in data set [3], 0.001 mg/mL (≈ 0.688 µM).
Taken in the same sequence, the figures for `CC[C@H](C)[C@@H]1NC(=O)[C@H](CC(C)C)N(C)C(=O)C[C@@H](C(=O)N(C)C)N(C)C(=O)[C@H]([C@@H](C)CC)N(C)C(=O)C2(CCCC2)NC(=O)[C@@H]2CCCN2C(=O)[C@H](CCc2ccc(C(F)(F)F)c(Cl)c2)NC(=O)CN(C)C(=O)[C@H](Cc2ccc(C)cc2)N(C)C(=O)[C@@H]2CCN2C(=O)[C@H](C)N(C)C1=O` [Compound 7] ([NMeL]I[NMeA][Aze][NMePhe(4-Me)][Sar][hPhe(3-Cl-4-CF3)]P[Ac5c][NMeI][NMeD]-NMe2; lactam N-11) were 29.6 nm/s, 0.492 mg/mL (≈ 349 µM), 1.65 mg/mL (≈ 1170 µM) and 0.015 mg/mL (≈ 10.6 µM).
Taken in the same sequence, the figures for `CCO[C@@H]1C[C@H]2C(=O)NC3(CCCC3)C(=O)N(C)[C@@H](C3CCCC3)C(=O)N(C)[C@H](C(=O)N(C)C)CC(=O)N(C)[C@@H](CC(C)C)C(=O)N[C@@H]([C@@H](C)CC)C(=O)N(C)[C@@H](C)C(=O)N3CC[C@H]3C(=O)N(C)[C@@H](CC3CCCCC3)C(=O)N(C)CC(=O)N[C@@H](CCc3cc(F)c(C(F)(F)F)c(F)c3)C(=O)N2C1` [Compound 8] ([NMeL]I[NMeA][Aze][NMeCha][Sar][hPhe(3,5-F2-4-CF3)][Hyp](Et)[Ac5c][NMeGly(cPent)][NMeD]-NMe2; lactam N-11) were 23.9 nm/s, 0.356 mg/mL (≈ 244 µM), 1.34 mg/mL (≈ 916 µM) and 0.005 mg/mL (≈ 3.43 µM).
Consider `CC[C@H](C)[C@@H]1NC(=O)[C@H](CC(C)C)N(C)C(=O)C[C@@H](C(=O)N2CCOCC2)N(C)C(=O)[C@H](C2CCCC2)N(C)C(=O)C2(CCCC2)NC(=O)[C@@H]2CCCN2C(=O)[C@H](CCc2ccc(C(F)(F)F)c(Cl)c2)NC(=O)CN(C)C(=O)[C@H](Cc2ccc(C(F)(F)F)cc2)N2CCCCC[C@@H](C2=O)N(C)C(=O)CN(C)C1=O` [Compound 9], for which, in data set [1], the Papp A→B at 180 min was 1.4 nm/s. Moreover, the solubility in data set [2] (setting [4]) came out at 0.45 mg/mL (≈ 291 µM); in data set [2] (setting [5]) it was 1.51 mg/mL (≈ 978 µM).
Take `CCO[C@@H]1C[C@H]2C(=O)NC3(CCC3)C(=O)N(C)[C@@H](C3CCCC3)C(=O)N(C)[C@H](C(=O)N(C)C)CC(=O)N(C)[C@@H](CC)C(=O)N[C@@H]([C@@H](C)CC)C(=O)N(C)CC(=O)N(C)[C@H]3C/C=C\CCN(C3=O)[C@@H](Cc3ccc(C(F)(F)F)cc3)C(=O)N(C)CC(=O)N[C@@H](CCc3cc(F)c(C(F)(F)F)c(F)c3)C(=O)N2C1` [Compound 10]: the Papp A→B at 180 min in data set [1] was 7 nm/s. The solubility in data set [2] (setting [4]) turned out to be 0.583 mg/mL (≈ 387 µM); in data set [2] (setting [5]), 1.68 mg/mL (≈ 1120 µM).
